Legend:
Assay in all cases: relative viability (nuclei count vs DMSO), 5 days (fraction); higher = more cells survive
GW-2580 + Olaparib = compound: COC1=CC=C(C=C1)COC2=C(C=C(C=C2)CC3=CN=C(N=C3N)N)OC [GW-2580] + O=C(c1cc(Cc2n[nH]c(=O)c3ccccc23)ccc1F)N1CCN(C(=O)C2CC2)CC1 [Olaparib] (partner 8 µM)
Procedure, shortened: (§1)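 Relative viability was taken as the ratio of nuclei in treated wells to nuclei in vehicle wells. Lung cancer cell lines in 1536-well plates received compounds by pin tool one day after seeding, either one drug alone or a fixed anchor-drug dose plus five library-drug doses (not always all listed) in √10 steps. Nuclei were counted on 4× images after 5 days of treatment, and values are medians of duplicate plates.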

Fedratinib + Bortezomib = compound: Cc1cnc(Nc2ccc(OCCN3CCCC3)cc2)nc1Nc1cccc(S(=O)(=O)NC(C)(C)C)c1 [Fedratinib] + CC(C)C[C@H](NC(=O)[C@H](Cc1ccccc1)NC(=O)c1cnccn1)B(O)O [Bortezomib] (partner 0.002 µM)
Procedure, shortened: as §1

Fedratinib + Tozasertib = compound: Cc1cnc(Nc2ccc(OCCN3CCCC3)cc2)nc1Nc1cccc(S(=O)(=O)NC(C)(C)C)c1 [Fedratinib] + Cc1cc(Nc2cc(N3CCN(C)CC3)nc(Sc3ccc(NC(=O)C4CC4)cc3)n2)n[nH]1 [Tozasertib] (partner 0.1 µM)
Procedure, shortened: as §1

GW-2580 + Alpelisib = compound: COC1=CC=C(C=C1)COC2=C(C=C(C=C2)CC3=CN=C(N=C3N)N)OC [GW-2580] + Cc1nc(NC(=O)N2CCC[C@H]2C(N)=O)sc1-c1ccnc(C(C)(C)C(F)(F)F)c1 [Alpelisib] (partner 2 µM)
Procedure, shortened: as §1

Fedratinib + Linsitinib = compound: Cc1cnc(Nc2ccc(OCCN3CCCC3)cc2)nc1Nc1cccc(S(=O)(=O)NC(C)(C)C)c1 [Fedratinib] + C[C@]1(O)C[C@@H](c2nc(-c3ccc4ccc(-c5ccccc5)nc4c3)c3c(N)nccn32)C1 [Linsitinib] (partner 1 µM)
Procedure, shortened: as §1

| Cell Line | relative viability (GW-2580 + Olaparib; first compound 0.08 µM) | relative viability (GW-2580 + Olaparib; first compound 0.8 µM) | relative viability (GW-2580 + Olaparib; first compound 2.53 µM) | relative viability (GW-2580 + Olaparib; first compound 8 µM) | relative viability (Fedratinib + Bortezomib; first compound 0.1 µM) | relative viability (Fedratinib + Bortezomib; first compound 0.3162 µM) | relative viability (Fedratinib + Bortezomib; first compound 1 µM) | relative viability (Fedratinib + Tozasertib; first compound 0.1 µM) | relative viability (Fedratinib + Tozasertib; first compound 0.3162 µM) | relative viability (Fedratinib + Tozasertib; first compound 1 µM) | relative viability (GW-2580 + Alpelisib; first compound 0.08 µM) | relative viability (GW-2580 + Alpelisib; first compound 0.8 µM) | relative viability (GW-2580 + Alpelisib; first compound 2.53 µM) | relative viability (GW-2580 + Alpelisib; first compound 8 µM) | relative viability (Fedratinib + Linsitinib; first compound 0.1 µM) | relative viability (Fedratinib + Linsitinib; first compound 0.3162 µM) | relative viability (Fedratinib + Linsitinib; first compound 1 µM) |
| --- | --- | --- | --- | --- | --- | --- | --- | --- | --- | --- | --- | --- | --- | --- | --- | --- | --- |
| ChaGo-K-1 | 0.423 | 0.457 | 0.388 | 0.393 | 0.932 | 1.1 | 0.777 | 0.213 | 0.245 | 0.217 | – | – | – | – | – | – | – |
| Calu-6 | 0.657 | 0.663 | 0.559 | 0.636 | 1.05 | 0.981 | 0.771 | – | – | – | 1.08 | 0.964 | 0.902 | 1.07 | 1.02 | 0.953 | 0.917 |
| NCI-H358 | 0.652 | 0.658 | 0.635 | 0.621 | – | – | – | 0.0945 | 0.0925 | 0.0987 | 0.967 | 0.872 | 0.851 | 0.775 | 0.565 | 0.597 | 0.53 |
| NCI-H1944 | 0.427 | 0.432 | 0.378 | 0.399 | – | – | – | 0.25 | 0.225 | 0.209 | 0.826 | 0.94 | 0.828 | 0.759 | 1.28 | 1.12 | 1.1 |
| NCI-H1648 | 1.34 | – | 0.666 | 0.764 | – | – | – | 0.409 | 0.567 | 0.422 | – | – | – | – | – | – | – |
| EBC-1 | 0.837 | 0.734 | 0.664 | 0.59 | 0.478 | 0.501 | 0.39 | – | – | – | 0.91 | 1 | 0.746 | 0.887 | 0.764 | 0.937 | 0.814 |
| NCI-H1299 | 1.05 | 0.965 | 0.922 | 0.876 | 1.05 | 1.02 | 1.01 | – | – | – | 1.2 | 1.04 | 1.04 | 1.07 | 0.946 | 0.96 | 0.994 |
| NCI-H2342 | 0.397 | 0.59 | 0.382 | 0.382 | – | – | – | 0.51 | 0.713 | 0.695 | – | – | – | – | – | – | – |
| IA-LM | 0.844 | 1 | 0.853 | 0.756 | 0.747 | 0.784 | 0.642 | – | – | – | 1.11 | 0.725 | 0.656 | 0.883 | 0.547 | 0.546 | 0.786 |
| SK-MES-1 | 0.79 | 0.795 | 0.603 | 0.777 | – | – | – | 0.375 | 0.857 | 0.737 | 1.15 | 0.907 | 0.94 | 0.885 | 1.08 | 1.11 | 1 |
| NCI-H2170 | 0.616 | 0.702 | 0.569 | 0.574 | – | – | – | 0.481 | 0.743 | 0.599 | 0.892 | 0.842 | 0.741 | 0.902 | – | – | – |
| NCI-H1793 | 0.892 | 1.02 | 0.822 | 0.804 | – | – | – | 0.263 | 0.353 | 0.288 | 0.659 | 0.679 | 0.634 | 0.775 | 0.937 | 0.857 | 0.899 |

From the supplement of paper PMC10307832
